Laboratory results: PubChem BioAssay AID1117355 (Cheminformatics & Chemogenomics Research Group (CCRG), …, 2015)
Activity calls are given as the source filed them. The rule behind the calls is not given here.

molecular target: Glycogen synthase kinase-3 beta (Homo sapiens) (UniProt P49841); assay: NPC library primary assay, GSK-3β enzyme inhibitors, biochemical, Homo sapiens, LANCE Ultra TR-FRET detection (AID 1117355); conditions: LANCE Ultra TR-FRET kinase activity; at 20 µM (top of the series)
Sequence (P49841 whole entry, looked up): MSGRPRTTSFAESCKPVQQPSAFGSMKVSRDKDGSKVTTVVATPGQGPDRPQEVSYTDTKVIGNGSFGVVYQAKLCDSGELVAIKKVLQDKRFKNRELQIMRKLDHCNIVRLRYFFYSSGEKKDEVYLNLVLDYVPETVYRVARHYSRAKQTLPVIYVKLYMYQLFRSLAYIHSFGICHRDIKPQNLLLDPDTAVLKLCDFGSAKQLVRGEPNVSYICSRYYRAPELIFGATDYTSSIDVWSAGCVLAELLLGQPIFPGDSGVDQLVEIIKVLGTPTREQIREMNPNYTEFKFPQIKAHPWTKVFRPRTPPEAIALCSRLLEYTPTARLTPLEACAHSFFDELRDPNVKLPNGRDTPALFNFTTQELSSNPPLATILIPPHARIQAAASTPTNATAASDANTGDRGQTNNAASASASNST

SMILES	inhibition
C=CC(=O)Nc1cc2c(Nc3ccc(F)c(Cl)c3)ncnc2cc1OCCCN1CCOCC1	31.2% (inactive)
COc1cc(NCc2ccc3nc(N)nc(N)c3c2C)cc(OC)c1OC	2.46% (inactive)
O=C1c2c(O)ccc(O)c2C(=O)c2c(NCCNCCO)ccc(NCCNCCO)c21	-5.18% (inactive)
COc1cc(-c2ccc(=O)[nH]n2)ccc1OC(F)F	-21.7% (inactive)
COc1ccc2cc1Oc1ccc(cc1)C[C@H]1c3c(cc4c(c3Oc3cc5c(cc3OC)CCN(C)[C@@H]5C2)OCO4)CCN1C	2.24% (inactive)
COC(=O)[C@H]1[C@H]2C[C@@H]3c4[nH]c5cc(OC)ccc5c4CCN3C[C@H]2C[C@@H](OC(=O)/C=C/c2ccc(O)c(OC)c2)[C@@H]1OC	7.56% (inactive)
CC[C@]1(O)C[C@H]2CN(CCc3c([nH]c4ccccc34)[C@@](C(=O)OC)(c3cc4c(cc3OC)N(C=O)[C@H]3[C@@](O)(C(=O)OC)[C@H](OC(C)=O)[C@]5(CC)C=CCN6CC[C@]43[C@@H]65)C2)C1	-0.84% (inactive)
Cc1ccc([N+](=O)[O-])[c]2c1[O][Hg]2	66.1%
COC(=O)Nc1nc2ccc(C(=O)c3ccccc3)cc2[nH]1	25.4% (inactive)
CCCN(CCC)C(=O)C(CCC(=O)OCCCN1CCN(CCOC(=O)Cc2c(C)n(C(=O)c3ccc(Cl)cc3)c3ccc(OC)cc23)CC1)NC(=O)c1ccccc1 (stereo unspecified)	0.27% (inactive)
Cn1cnc([N+](=O)[O-])c1Sc1ncnc2nc[nH]c12	-18.2% (inactive)
COC(=O)c1nc(Cl)c(Cl)nc1N	20.8% (inactive)
CCN(CC)CCNc1ccc(CO)c2sc3ccccc3c(=O)c12	24.6% (inactive)
O=C(Nc1ccc([N+](=O)[O-])cc1Cl)c1cc(Cl)ccc1O	-11.3% (inactive)
COc1ccc(-c2ccc3cc(C(=O)O)ccc3c2)cc1C12CC3CC(CC(C3)C1)C2	79.4%
O=c1[nH]c(=O)n([C@H]2C[C@H](O)[C@@H](CO)O2)cc1C(F)(F)F	17.2% (inactive)
CCN(CC)CCOc1ccc(/C(=C(\Cl)c2ccccc2)c2ccccc2)cc1	-11.9% (inactive)
COc1cccc2c1C(=O)c1c(O)c3c(c(O)c1C2=O)C[C@@](O)(C(C)=O)C[C@@H]3O[C@H]1C[C@H](N)[C@H](O)[C@H](C)O1	7.12% (inactive)
Cc1ccc2nc(N)[nH]c(=O)c2c1Sc1ccncc1	-35.9% (inactive)
Cc1ccccc1C(=O)Nc1ccc(C(=O)N2CCCC(N(C)C)c3ccccc32)cc1 (stereo unspecified)	18.2% (inactive)
CCCSc1ccc2nc(NC(=O)OC)[nH]c2c1	-11.3% (inactive)

SMILES	inhibition
COc1cc2c(c(OC)c1OC)-c1ccc(OC)c(=O)cc1[C@@H](NC(C)=O)CC2	4.13% (inactive)
COc1cc([C@@H]2c3cc4c(cc3[C@H](O)[C@H]3COC(=O)[C@H]23)OCO4)cc(OC)c1OC	26.6% (inactive)
Nc1ccc2cc3ccc(N)cc3nc2c1	-57.5% (inactive)
Cc1cc(=O)c2c(O)c3c(O)cc(=O)c4c3c3c(cc(O)c1c23)C(C)(C)C=4O	60.6%
O=[N+]([O-])c1ccc(O)c2ncccc12	-9.81% (inactive)
O=C(NOCC1CC1)c1ccc(F)c(F)c1Nc1ccc(I)cc1Cl	-12.6% (inactive)
CC(C)(C)C1CCC(CC2=C(O)c3ccccc3C(=O)C2=O)CC1 (stereo unspecified)	10.2% (inactive)
Oc1c(I)cc(I)c2cccnc12	-1.57% (inactive)
NC(=NCCCCCCN=C(N)/N=C(\N)Nc1ccc(Cl)cc1)/N=C(\N)Nc1ccc(Cl)cc1	0.77% (inactive)
O=C(CCCCCCC(=O)Nc1ccccc1)NO	-28.8% (inactive)
Cc1cc2c(C(C)C)c(O)c(O)c(C=O)c2c(O)c1-c1c(C)cc2c(C(C)C)c(O)c(O)c(C=O)c2c1O	7.52% (inactive)
Cc1nc(N)nc(N)c1-c1ccc(Cl)c(Cl)c1	-1.14% (inactive)
Oc1c(Cl)cc(Cl)cc1Sc1cc(Cl)cc(Cl)c1O	81.3%
CC(C)C[C@H](NC(=O)[C@H](Cc1ccccc1)NC(=O)c1cnccn1)B(O)O	1.64% (inactive)
CN1CC[C@H](c2c(O)cc(O)c3c(=O)cc(-c4ccccc4Cl)oc23)[C@H](O)C1	99.9%
COc1ccc(-c2nc3ccc(C4=NNC(=O)CC4C)cc3[nH]2)cc1 (stereo unspecified)	-64.9% (inactive)
CC(=O)Oc1ccc(C2(c3ccc(OC(C)=O)cc3)Oc3ccccc3NC2=O)cc1	19% (inactive)
CCCCCCCCCCCCCC[N+](C)(C)C	-4.51% (inactive)
C[n+]1c2cc(N)ccc2cc2ccc(N)cc21 (tested in a mixture with another compound)	-24.7% (inactive)
CC(C)C[C@H](NC(=O)[C@H](CCc1ccccc1)NC(=O)CN1CCOCC1)C(=O)N[C@@H](Cc1ccccc1)C(=O)N[C@@H](CC(C)C)C(=O)[C@@]1(C)CO1	20.4% (inactive)
CCCCCCNC(=O)n1cc(F)c(=O)[nH]c1=O	-7.61% (inactive)

SMILES	inhibition
O=C(O)c1ccc(-n2nc(-c3ccccc3O)nc2-c2ccccc2O)cc1	37.5% (inactive)
[O-][n+]1ccccc1SSc1cccc[n+]1[O-]	-25.6% (inactive)
CCCCCCCCCCCCCCCCCCNC(=O)OC1CCN(C(=O)OC[C@H](COC(=O)N(Cc2cccc[n+]2CC)C(=O)c2ccccc2OC)OC)CC1	24% (inactive)
COC(=O)Nc1nc2ccc(C(=O)c3cccs3)cc2[nH]1	42.2% (inactive)
COCc1c(C(C)C)nc(C(C)C)c(/C=C/[C@@H](O)C[C@@H](O)CC(=O)O)c1-c1ccc(F)cc1	3.27% (inactive)
CCc1nc(N)nc(N)c1-c1ccc(Cl)cc1	-8.63% (inactive)
COc1c(C)c2c(c(O)c1C/C=C(\C)CCC(=O)OCCN1CCOCC1)C(=O)OC2	11.3% (inactive)
COC(=O)Nc1nc2ccc(C(=O)C3CC3)cc2[nH]1	54.4%
O=c1[nH]c(=O)n([C@H]2C[C@H](O)[C@@H](CO)O2)cc1F	-21.3% (inactive)
CSc1ccc2c(c1)C(N1CCN(C)CC1)Cc1ccccc1S2 (stereo unspecified)	0.73% (inactive)
CC[C@]1(O)C[C@@H]2CN(CCc3c([nH]c4ccccc34)[C@@](C(=O)OC)(c3cc4c(cc3OC)N(C)[C@H]3[C@@](O)(C(=O)OC)[C@H](OC(C)=O)[C@]5(CC)C=CCN6CC[C@]43[C@@H]65)C2)C1	-4.66% (inactive)
Oc1c(Cl)cc(Cl)c2cccnc12	-26.5% (inactive)
C=C(C)[C@H]1Cc2c(ccc3c2O[C@@H]2COc4cc(OC)c(OC)cc4[C@@H]2C3=O)O1	21.6% (inactive)
CC[C@@]1(O)C(=O)OCc2c1cc1n(c2=O)Cc2c-1nc1ccccc1c2/C=N/OC(C)(C)C	16.9% (inactive)
CC(C)(C)C(=O)OCOP(=O)(COCCn1cnc2c(N)ncnc21)OCOC(=O)C(C)(C)C	7.97% (inactive)
S=c1nc[nH]c2nc[nH]c12	20.7% (inactive)
Cc1cc(O)c2ccccc2c1O	50.4%
CNC(=O)c1cc(Oc2ccc(NC(=O)Nc3ccc(Cl)c(C(F)(F)F)c3)cc2)ccn1	47.6% (inactive)
CC(=O)[C@]1(O)Cc2c(O)c3c(c(O)c2[C@@H](O[C@H]2C[C@H](N)[C@H](O)[C@H](C)O2)C1)C(=O)c1ccccc1C3=O	5.63% (inactive)
CCN(CC)CCNC(=O)c1c(C)[nH]c(/C=C2\C(=O)Nc3ccc(F)cc32)c1C	62.9%
O=C(CCl)c1ccc(Cl)cc1Cl	9.91% (inactive)

SMILES	inhibition
Cc1cc(C)c(/C=C2\C(=O)Nc3ccccc32)[nH]1	-34.3% (inactive)
CCC1=C[C@@H]2CN(C1)Cc1c([nH]c3ccccc13)[C@@](C(=O)OC)(c1cc3c(cc1OC)N(C)[C@H]1[C@@](O)(C(=O)OC)[C@H](OC(C)=O)[C@]4(CC)C=CCN5CC[C@]31[C@@H]54)C2	24.2% (inactive)
COC(=O)Nc1nc2ccc(Sc3ccccc3)cc2[nH]1	-21% (inactive)
C[C@@]12C(=O)OC(=O)[C@]1(C)C1CCC2O1	2.16% (inactive)
Cc1nc(Nc2ncc(C(=O)Nc3c(C)cccc3Cl)s2)cc(N2CCN(CCO)CC2)n1	38.8% (inactive)
CCCOc1ccc2nc(NC(=O)OC)[nH]c2c1	-5.09% (inactive)
Cc1cc(C2CCCCC2)n(O)c(=O)c1	0.84% (inactive)
O=c1c(-c2ccccc2)c1-c1ccccc1	31.4% (inactive)
CCCCc1oc2ccccc2c1C(=O)c1cc(I)c(OCCN(CC)CC)c(I)c1	26% (inactive)
CCCCCCCCCCCCCCCC[n+]1ccccc1	-21.5% (inactive)
CN(C)c1ccc2nc3ccc(=[N+](C)C)cc-3sc2c1	-210% (inactive)
COC(=O)Nc1nc2ccc(S(=O)c3ccccc3)cc2[nH]1 (stereo unspecified)	-3.53% (inactive)
Cc1nc2ccc(CN(C)c3ccc(C(=O)N[C@@H](CCC(=O)O)C(=O)O)s3)cc2c(=O)[nH]1	81.3%
CC[C@@H]([C@H](C)O)n1ncn(-c2ccc(N3CCN(c4ccc(OC[C@@H]5CO[C@@](Cn6cncn6)(c6ccc(F)cc6F)C5)cc4)CC3)cc2)c1=O	8.55% (inactive)
COc1cc2nc(N3CCN(C(=O)c4ccco4)CC3)nc(N)c2cc1OC	-50.4% (inactive)
CCC(C)n1ncn(-c2ccc(N3CCN(c4ccc(OC[C@H]5CO[C@](Cn6cncn6)(c6ccc(Cl)cc6Cl)O5)cc4)CC3)cc2)c1=O (stereo partly specified)	14.1% (inactive)
CCCCC1C(=O)N(c2ccccc2)N(c2ccc(O)cc2)C1=O (stereo unspecified)	5.48% (inactive)
Nc1nc(=S)c2[nH]cnc2[nH]1	-30.7% (inactive)
